This is an account of results in article PMC3899110 (Methods (San Diego, Calif.), 2013).

Read-outs that look alike come from different tables or passages of the source.

Assay [1] deals with T1, LYP (Homo sapiens, UniProt Q9Y2R2).
T1 sequence (Q9Y2R2 24-289 limits assumed): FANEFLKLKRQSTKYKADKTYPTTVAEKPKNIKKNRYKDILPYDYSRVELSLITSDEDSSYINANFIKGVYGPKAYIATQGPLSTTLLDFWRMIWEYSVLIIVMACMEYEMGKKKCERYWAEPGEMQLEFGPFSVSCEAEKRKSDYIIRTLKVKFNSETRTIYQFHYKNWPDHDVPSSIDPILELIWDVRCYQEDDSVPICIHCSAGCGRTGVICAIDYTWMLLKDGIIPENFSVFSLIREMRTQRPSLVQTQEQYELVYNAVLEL
Put plainly: LYP inhibition, follow-up of the 1536-well HTS, pCAP or OMFP substrate. It counts as biochemical.

Assay [2] has as its target T1, LYP. Particulars: Spectrum collection screen, cited from earlier work.
The target in assay [3] is T1, LYP. It counts as biochemical. Particulars: for kcat: pH 6.5.

For the molecule `O=C(O)COc1ccc(/C=N/NC(=O)c2ccc(-c3csc(Nc4ccc(Cl)cc4)n3)cc2)cc1` [CID9595032], the IC50 at LYP [1] (read-out: IC50, OMFP substrate, assayed using the OMFP substrate) is 1.5 µM; at LYP [1] (read-out: IC50, pCAP substrate, assayed using the pCAP substrate), 0.53 µM.
Take `Cc1ccc(C(=O)Nc2ccc(S(=O)(=O)O)c3cc(S(=O)(=O)O)cc(S(=O)(=O)O)c23)cc1NC(=O)c1cccc(NC(=O)Nc2cccc(C(=O)Nc3cc(C(=O)Nc4ccc(S(=O)(=O)O)c5cc(S(=O)(=O)O)cc(S(=O)(=O)O)c45)ccc3C)c2)c1` [suramin]: the “inhibition of LYP activity, DiFMUP-based screen” value on LYP [2] (DiFMUP as substrate) was ~40%. Further, at LYP [2] (peptide 2 as substrate), the “inhibition of LYP activity, peptide-based screen” value is listed as “nearly all”.
With Ac-ARLIEDNE-pCAP-TAREG-NH2 [Peptide 2], at LYP [3], the Km was determined as 200 ± 60 µM, the kcat/Km was 27,000,000 M^−1s^−1 and the turnover number (kcat) came to 5400 ± 1000 s⁻¹.
Regarding Ac-ARLIEDNE-pY-TAREG-NH2 [Peptide 2a], on LYP [3], the Km stood at 130 ± 20 µM, the kcat/Km is reported as 52,000,000 M^−1s^−1 and the catalytic constant (kcat) was determined as 6700 ± 400 s⁻¹.

Broadly, the IC50 is the point on the concentration scale where inhibition reaches its midpoint. Broadly, the Km is the concentration of substrate that gives half-maximal velocity. As usually defined, the kcat is the number of substrate molecules converted per active site and unit of time at saturation.
